Several values for one entry are separate records, joined by “and”; a condition that tells them apart may be missing. Identical values can stand only once. Like-named read-outs stand apart in the source and are kept apart here.
Columns and labels:
[1] = biological target: T1, serotonin transporter (SERT) (Rattus norvegicus (Rat), UniProt P31652); conditions: for Ki: rat brain membranes
Description: (§1) Brains from male Sprague-Dawley rats weighing 200-225 g (Taconic Labs, Germantown, N.Y.) were removed, midbrain dissected and rapidly frozen. […] Nonspecific binding was determined using 10 mM fluoxetine. […] The filters were washed twice with 3 mL cold buffer and transferred to scintillation vials. Beckman Ready Value (3.0 mL) was added and the vials were counted the next day using a Beckman 6000 liquid scintillation counter (Beckman Coulter Instruments, Fullerton, Calif.). […] Data were analyzed with GraphPad Prism software (San Diego, Calif.).

Sigma 2 = Sigma 2 (Homo sapiens (Human), UniProt Q5BJF2); assay: Sigma 2 binding affinity (Table 5)
Sigma 1 = Sigma 1 (Homo sapiens (Human), UniProt Q99720); assay: Sigma 1 binding affinity (Table 5)
Sequence of Sigma 1 (Q99720 whole entry): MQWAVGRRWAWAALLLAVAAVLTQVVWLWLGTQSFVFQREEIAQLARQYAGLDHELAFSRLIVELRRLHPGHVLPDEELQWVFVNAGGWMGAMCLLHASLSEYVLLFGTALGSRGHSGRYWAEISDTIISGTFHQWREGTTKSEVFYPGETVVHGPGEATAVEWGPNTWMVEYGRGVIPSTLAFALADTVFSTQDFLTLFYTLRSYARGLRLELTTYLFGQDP

[2] = biological target: dopamine transporter (DAT) (Rattus norvegicus (Rat), UniProt P23977); assay: Dopamine Transporter Binding Assay ([3H]WIN 35428, rat striatal membranes)
Sequence of dopamine transporter (DAT) (P23977 whole entry): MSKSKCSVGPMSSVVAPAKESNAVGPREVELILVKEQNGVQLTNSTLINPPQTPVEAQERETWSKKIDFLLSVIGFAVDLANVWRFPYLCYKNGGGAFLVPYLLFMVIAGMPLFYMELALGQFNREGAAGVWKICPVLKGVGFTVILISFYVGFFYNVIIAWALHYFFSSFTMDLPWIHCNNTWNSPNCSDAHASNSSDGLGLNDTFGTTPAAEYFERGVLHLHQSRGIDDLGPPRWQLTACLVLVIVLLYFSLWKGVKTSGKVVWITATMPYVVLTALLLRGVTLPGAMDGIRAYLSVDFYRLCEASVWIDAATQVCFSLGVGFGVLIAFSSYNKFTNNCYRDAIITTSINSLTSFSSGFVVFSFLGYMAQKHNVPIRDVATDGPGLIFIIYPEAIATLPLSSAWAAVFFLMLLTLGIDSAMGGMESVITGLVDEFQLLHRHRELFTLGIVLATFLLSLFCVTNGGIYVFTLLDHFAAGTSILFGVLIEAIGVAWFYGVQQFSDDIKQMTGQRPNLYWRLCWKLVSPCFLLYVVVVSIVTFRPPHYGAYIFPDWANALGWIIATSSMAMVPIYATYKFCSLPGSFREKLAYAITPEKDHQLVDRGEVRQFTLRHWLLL

[3] = biological target: T1, serotonin transporter (SERT); assay: biochemical
Description: as §1

[4] = biological target: norepinephrine transporter (NET) (Rattus norvegicus, UniProt Q63380); conditions: rat brain membranes
Sequence of norepinephrine transporter (NET) (Q63380 1-617): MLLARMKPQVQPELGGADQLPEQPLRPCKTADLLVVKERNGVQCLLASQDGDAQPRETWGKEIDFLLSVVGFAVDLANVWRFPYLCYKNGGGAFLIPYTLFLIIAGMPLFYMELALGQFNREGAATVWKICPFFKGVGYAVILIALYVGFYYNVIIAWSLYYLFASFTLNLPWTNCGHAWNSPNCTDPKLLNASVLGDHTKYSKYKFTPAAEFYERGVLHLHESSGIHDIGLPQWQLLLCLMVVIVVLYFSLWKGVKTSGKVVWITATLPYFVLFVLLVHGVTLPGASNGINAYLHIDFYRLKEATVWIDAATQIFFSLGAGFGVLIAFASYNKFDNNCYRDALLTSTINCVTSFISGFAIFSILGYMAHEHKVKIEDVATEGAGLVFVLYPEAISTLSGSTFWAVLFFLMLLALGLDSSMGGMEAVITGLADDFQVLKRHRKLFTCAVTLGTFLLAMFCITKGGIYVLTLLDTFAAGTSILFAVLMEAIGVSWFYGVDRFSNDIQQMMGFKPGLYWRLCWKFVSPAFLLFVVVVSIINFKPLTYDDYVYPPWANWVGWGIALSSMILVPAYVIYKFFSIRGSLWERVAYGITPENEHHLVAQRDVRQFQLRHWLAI
Description: Binding affinities of all compounds were evaluated at the DAT, SERT, and NET in rat brain membranes using previously described methods:
Norepinephrine Transporter Binding Assay. Brains from male Sprague-Dawley rats weighing 200-225 g (Taconic Labs, Germantown, N.Y.) were removed, frontal cortex dissected and rapidly frozen. Membranes were prepared by homogenizing tissues in 20 volumes (w/v) of 50 mM Tris containing 120 mM NaCl and 5 mM KCl, (pH 7.4 at 25° C.), using a Brinkman Polytron and centrifuged at 50,000×g for 10 min at 4° C. The resulting pellet was resuspended in buffer, recentrifuged and resuspended in buffer to a concentration of 80 mg/mL. Ligand binding experiments were conducted in assay tubes containing 0.5 mL buffer for 60 min at 0-4° C. […] Nonspecific binding was determined using 1 mM desipramine. Incubations were terminated by rapid filtration through Whatman GF/B filters, presoaked in 0.05% polyethylenimine, using a Brandel R48 filtering manifold (Brandel Instruments Gaithersburg, Md.). The filters were washed twice with 3 mL cold buffer and transferred to scintillation vials. Beckman Ready Value (3.0 mL) was added and the vials were counted using a Beckman 6000 liquid scintillation counter (Beckman Coulter Instruments, Fullerton, Calif.). […] All compounds were tested as racemic mixtures.

[5] = Metabolic stability in mouse plasma; format: in vitro ADME; conditions: mouse plasma, 10 μM, 0 min
Description: The metabolic stability was evaluated using mouse plasma and mouse liver microsomes.

[6] = Phase II (glucuronidation, UDPGA) metabolic stability in mouse liver microsomes; format: in vitro ADME
Description: Phase I and phase II metabolic stability assay for was conducted in mouse liver microsomes. For phase I metabolism, the reaction was carried out with 100 mM potassium phosphate buffer, pH 7.4, in the presence of NADPH regenerating system (1.3 mM NADPH, 3.3 mM glucose 6-phosphate, 3.3 mM MgCl2, 0.4 U/mL glucose-6-phosphate dehydrogenase, 50 μM sodium citrate). Reactions in duplicate were initiated by addition of the liver microsomes to the incubation mixture (compound final concentration was 10 μM; 0.5 mg/mL microsomes). For phase II glucuronidation reaction compound was added to TRIS-HCl buffer (50 mM, pH 7.5) with microsomes (0.5 mg/mL), along with MgCl2 (8 mM), and alamethicin (25 μg/mL) and pre-incubated at 37° C. The reaction was initiated (in duplicate) with UDPGA at a final concentration of 2 mM. Negative controls in the absence NADPH and UDPGA were carried for both phase I and phase II metabolism respectively, to determine the specific cofactor free degradation. […] At predetermined times (0, 15, 30 and 60 min) aliquots of the mixture were removed and the reaction quenched by addition of two times the volume of ice cold acetonitrile spiked with the internal standard. Compound disappearance was monitored over time using a liquid chromatography and tandem mass spectrometry (LC/MS/MS) method.
Compounds were separated on an Agilent 1290 UPLC system with a c18 column using a gradient run of 55:45-5:95 water:acetonitrile over 3.2 minutes and detected on an Agilent 6520 QTOF mass spectrometer.

[7] = read-out: SERT Ki ± SEM, Table 5 piperazinyl derivatives
[8] = Table 5 piperazinyl derivatives, read-out: Sigma 2 Ki ± SEM
[9] = Table 5 piperazinyl derivatives, read-out: Sigma 1 Ki ± SEM
[10] = rat brain membranes, Table 1 thioacetamides and sulfinylacetamides, read-out: Ki (nM) ± S.E.M. DAT
[11] = read-out: Ki (nM) ± S.E.M. NET, Table 1 thioacetamides and sulfinylacetamides
[12] = rat brain membranes, Table 5 piperazinyl derivatives, read-out: DAT Ki ± SEM
[13] = read-out: NET Ki ± SEM, Table 5 piperazinyl derivatives
[14] = read-out: NET Ki, Table 5, bound in M
[15] = read-out: Ki (nM) ± S.E.M. SERT, Table 2 thioethanamines and sulfinylethanamines

Sequence of Sigma 2 (Q5BJF2 whole entry): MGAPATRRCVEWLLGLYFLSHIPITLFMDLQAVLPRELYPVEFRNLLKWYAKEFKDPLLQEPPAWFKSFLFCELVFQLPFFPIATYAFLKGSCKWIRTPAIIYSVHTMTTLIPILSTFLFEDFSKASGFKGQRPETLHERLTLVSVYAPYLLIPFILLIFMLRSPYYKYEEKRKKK
T1 sequence (P31652 whole entry): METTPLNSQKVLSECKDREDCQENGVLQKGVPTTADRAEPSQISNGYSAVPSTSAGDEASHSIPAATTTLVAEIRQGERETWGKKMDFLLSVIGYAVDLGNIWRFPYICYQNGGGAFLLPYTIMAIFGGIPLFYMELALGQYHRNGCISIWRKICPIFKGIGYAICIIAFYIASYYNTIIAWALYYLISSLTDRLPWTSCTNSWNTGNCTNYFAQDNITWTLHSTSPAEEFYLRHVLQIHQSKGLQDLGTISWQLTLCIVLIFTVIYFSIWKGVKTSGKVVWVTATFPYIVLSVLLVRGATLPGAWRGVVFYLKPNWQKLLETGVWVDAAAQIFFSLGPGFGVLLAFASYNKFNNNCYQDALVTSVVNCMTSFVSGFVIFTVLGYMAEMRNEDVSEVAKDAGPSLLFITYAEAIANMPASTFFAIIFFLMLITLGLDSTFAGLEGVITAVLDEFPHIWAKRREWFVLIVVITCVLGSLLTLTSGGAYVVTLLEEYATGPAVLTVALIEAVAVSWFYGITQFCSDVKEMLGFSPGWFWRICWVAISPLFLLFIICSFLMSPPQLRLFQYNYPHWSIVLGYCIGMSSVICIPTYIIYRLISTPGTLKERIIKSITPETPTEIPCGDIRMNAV

CC(O)CN1CCN(CCSC(c2ccc(F)cc2)c2ccc(F)cc2)CC1 (racemic) [Compound 9d, 1-(4-(2-((Bis(4-fluorophenyl)methyl)thio)ethyl)piperazin-1-yl)propan-2-ol]
Ki [1, 7]: 1770 ± 234 nM
Ki (Sigma 2; [8]): 0.0847 ± 0.0119 µM
Ki (Sigma 1; [9]): 0.00403 ± 0.00022 µM

NC(=O)C[S+]([O-])C(c1ccccc1)c1cccc(Br)c1 (stereo not drawn) [Compound 3e, 2-(((3-Bromophenyl)(phenyl)methyl)sulfinyl)acetamide]
Ki [2, 10]: 550 ± 7.4 nM
Ki [3]: > 100 µM
Ki [4, 11]: > 100000 nM

Fc1ccc(C(SCCN2CCN(CCCc3ccccc3)CC2)c2ccc(F)cc2)cc1 [Compound 7b, 1-(2-((Bis(4-fluorophenyl)methyl)thio)ethyl)-4-(3-phenylpropyl)piperazine]
Ki [2, 12]: 4.5 ± 0.34 nM
Ki [1, 7]: 285 nM
Ki (Sigma 2): 0.0285 ± 0.00214 µM
Ki (Sigma 1): 0.0595 ± 0.00504 µM
Ki [4, 13]: 1890 ± 116 nM

Cc1ccc(C(c2ccc(C)cc2)[S+]([O-])CC(N)=O)cc1 (stereo not drawn) [Compound 3a, 2-((Di-p-tolylmethyl)sulfinyl)acetamide]
Ki [2, 10]: 12700 nM
Ki [3]: > 100 µM
Ki [4, 11]: > 100000 nM

CC(O)CN1CCN(CC[S+]([O-])C(c2ccccc2)c2ccccc2)CC1 (racemic) [Compound 10a, 1-(4-(2-(Benzhydrylsulfinyl)ethyl)piperazin-1-yl)propan-2-ol]
Ki ([2]; read-out: DAT Ki ± SEM): 636 ± 14.7 nM
Ki ([1]; read-out: SERT Ki, Table 5, bound in M): > 100000 nM
Ki (Sigma 2; [8]): 3.93 ± 0.208 µM
Ki (Sigma 1; [9]): 0.861 ± 0.109 µM
Ki [4, 14]: > 100000 nM

OC(Cc1ccccc1)CN1CCN(CCSC(c2ccc(F)cc2)c2ccc(F)cc2)CC1 (racemic) [Compound 9j, 1-(4-(2-((Bis(4-fluorophenyl)methyl)thio)ethyl)piperazin-1-yl)-3-phenylpropan-2-ol]
Ki [1, 7]: 213 nM
Ki (Sigma 2): 0.0386 ± 0.00094 µM
Ki (Sigma 1): 0.0954 ± 0.0134 µM
Ki [4, 13]: 1950 ± 227 nM

NCCSC(c1ccc(Cl)cc1)c1ccc(Cl)cc1 [Compound 4b, 2-((bis(4-chlorophenyl)methyl)thio)ethan-1-amine]
Ki [1, 15]: 30 nM and 29.9 nM
Ki [3]: < 0.03 µM

O=C(CSC(c1ccc(Br)cc1)c1ccc(Br)cc1)NCC1CC1 [Compound 2q, 2-((Bis(4-bromophenyl)methyl)thio)-N-(cyclopropylmethyl)acetamide]
Ki [2, 10]: 993 ± 139 nM
Ki [3]: 7.27 µM
Ki [4, 11]: > 100000 nM

[O-][S+](CCN1CCN(CCCc2ccccc2)CC1)C(c1ccccc1)c1ccccc1 (stereo not drawn) [Compound 8a, 1-(2-(Benzhydrylsulfinyl)ethyl)-4-(3-phenylpropyl)piperazine]
Ki ([2]; read-out: DAT Ki ± SEM): 3.17 ± 0.11 nM
Ki [1, 7]: 7220 ± 944 nM
Ki (Sigma 2): 0.0205 ± 0.00043 µM
Ki (Sigma 1): 0.116 ± 0.00124 µM
Ki [4, 13]: 5540 ± 808 nM

[O-][S+](CCN1CCN(CC(O)Cc2ccccc2)CC1)C(c1ccc(F)cc1)c1ccc(F)cc1 (racemic) [Compound 10j, 1-(4-(2-((Bis(4-fluorophenyl)methyl)sulfinyl)ethyl)piperazin-1-yl)-3-phenylpropan-2-ol]
Ki [2, 12]: 2.53 ± 0.25 nM
Ki [1, 7]: 4610 ± 562 nM
Ki (Sigma 2; [8]): 0.176 ± 0.0263 µM
Ki (Sigma 1): 0.336 ± 0.0422 µM

O=C(CSC(c1ccccc1)c1ccccc1)N1CCN(CCCc2ccccc2)CC1 [Compound 11a, 2-(Benzhydrylthio)-1-(4-(3-phenylpropyl)piperazin-1-yl)ethan-1-one]
Ki [2, 12]: 47.2 ± 5.56 nM
Ki (Sigma 2): 0.773 µM
Ki (Sigma 1): 1.12 ± 0.0203 µM

CCN(CC)CCOC(=O)c1ccc(N)cc1 [Procaine, reference compound]
Metabolic stability, Plasma (% remaining) [5]: 100%

[O-][S+](CCN1CCN(CCCc2ccccc2)CC1)C(c1ccc(F)cc1)c1ccc(F)cc1 (stereo not drawn) [Compound 8b, 1-(2-((Bis(4-fluorophenyl)methyl)sulfinyl)ethyl)-4-(3-phenylpropyl)piperazine]
Ki ([2]; read-out: DAT Ki ± SEM): 2.92 ± 0.38 nM
Ki (Sigma 2; [8]): 0.0259 ± 0.00111 µM
Ki (Sigma 1; [9]): 0.0424 ± 0.0051 µM
Ki [4, 13]: 4280 ± 343 nM

O=C(CSC(c1ccc(F)cc1)c1ccc(F)cc1)NCC1CC1 [Compound 2p, 2-((Bis(4-fluorophenyl)methyl)thio)-N-(cyclopropylmethyl)acetamide]
Ki [2, 10]: 6860 nM
Ki [3]: 35.4 µM
Ki [4, 11]: 57600 nM

Cc1cc(=O)oc2cc(O)ccc12 [4 Methyl Umbelliferone, 4-methylumbelliferone, reference compound]
Metabolic stability, Phase II (% remaining) ([6]; 0 min): 100%
Metabolic stability, Phase II (% remaining) ([6]; 60 min): 3.10%

NCCSC(c1ccc(Br)cc1)c1ccc(Br)cc1 [Compound 4c, 2-((bis(4-bromophenyl)methyl)thio)ethan-1-amine]
improvement in DAT affinity, halogen-substituted v. unsubstituted analogue [2]: 3 fold
Ki ([2]; read-out: Ki (nM) ± S.E.M. DAT): 488 ± 52.2 nM
increase in SERT affinity, halogen-substituted v. unsubstituted analogue ([1]; 2i v. 2g (Table 1), 4c v. 4a (Table 2)): 9 fold
Ki [1, 15]: 26 nM and 26.3 nM
Ki [3]: < 0.03 µM

NC(=O)C[S+]([O-])C(c1cccc(Cl)c1)c1cccc(Cl)c1 (stereo not drawn) [Compound 3d, 2-((Bis(3-chlorophenyl)methyl)sulfinyl)acetamide]
Ki [3]: > 100 µM
Ki [4, 11]: > 100000 nM

[O-][S+](CCN1CCN(CC(O)Cc2ccccc2)CC1)C(c1ccccc1)c1ccccc1 (racemic) [Compound 10g, 1-(4-(2-(Benzhydrylsulfinyl)ethyl)piperazin-1-yl)-3-phenylpropan-2-ol]
Ki [2, 12]: 3.43 ± 0.5 nM
Ki [1, 7]: 21700 ± 2020 nM
Ki (Sigma 2; [8]): 0.316 ± 0.0252 µM
Ki (Sigma 1; [9]): 0.983 ± 0.103 µM
Ki [4, 13]: 25300 ± 2040 nM

c1ccc(CCCN2CCN(CCSC(c3ccccc3)c3ccccc3)CC2)cc1 [Compound 7a, 1-(2-(Benzhydrylthio)ethyl)-4-(3-phenylpropyl)piperazine]
Ki [2, 12]: 3.58 ± 0.16 nM
Ki [1, 7]: 1050 ± 152 nM
Ki (Sigma 2): 0.0168 ± 0.00215 µM
Ki (Sigma 1): 0.0199 ± 0.00259 µM
Ki [4, 13]: 988 nM

O=C(CSC(c1ccccc1)c1ccccc1)NCC1CC1 [Compound 2o, 2-(Benzhydrylthio)-N-(cyclopropylmethyl)acetamide]
Ki [2, 10]: 13900 nM
Ki [3]: 20.9 µM
Ki [4, 11]: > 100000 nM

CC(O)CN1CCN(CC[S+]([O-])C(c2ccc(F)cc2)c2ccc(F)cc2)CC1 (racemic) [Compound 10d, 1-(4-(2-((Bis(4-fluorophenyl)methyl)sulfinyl)ethyl)piperazin-1-yl)propan-2-ol]
Ki [1, 7]: 50300 ± 5760 nM
Ki (Sigma 2; [8]): 1.8 ± 0.264 µM
Ki (Sigma 1; [9]): 1.01 ± 0.134 µM
Ki [4, 14]: > 100000 nM

NC(=O)C[S+]([O-])C(c1cccc(F)c1)c1cccc(F)c1 (stereo not drawn) [Compound 3c, 2-((Bis(3-fluorophenyl)methyl)sulfinyl)acetamide]
Ki [2, 10]: 6180 nM
Ki [3]: > 100 µM
Ki [4, 11]: > 100000 nM

O=C(C[S+]([O-])C(c1ccccc1)c1ccccc1)N1CCN(CCCc2ccccc2)CC1 (stereo not drawn) [Compound 12a, 2-(Benzhydrylsulfinyl)-1-(4-(3-phenylpropyl)piperazin-1-yl)ethan-1-one]
Ki [2, 12]: 33 ± 2.83 nM
Ki [1, 7]: 15200 ± 1100 nM
Ki (Sigma 2; [8]): 0.469 ± 0.0664 µM
Ki (Sigma 1; [9]): 1.43 ± 0.0211 µM

OC(Cc1ccccc1)CN1CCN(CCSC(c2ccccc2)c2ccccc2)CC1 (racemic) [Compound 9g, 1-(4-(2-(Benzhydrylthio)ethyl)piperazin-1-yl)-3-phenylpropan-2-ol]
Ki [2, 12]: 2.54 ± 0.23 nM
Ki (Sigma 2; [8]): 0.0318 ± 0.00363 µM
Ki (Sigma 1; [9]): 0.03 ± 0.00381 µM
Ki [4, 13]: 1430 ± 118 nM

CC(O)CN1CCN(CCSC(c2ccccc2)c2ccccc2)CC1 (racemic) [Compound 9a, 1-(4-(2-(Benzhydrylthio)ethyl)piperazin-1-yl)propan-2-ol]
Ki [2, 12]: 49.6 ± 4.31 nM
Ki [1, 7]: 26700 ± 2630 nM
Ki (Sigma 2): 0.0926 ± 0.0135 µM
Ki (Sigma 1): 0.00094 ± 7e-05 µM
Ki [4, 13]: 44500 ± 2400 nM
